These results are taken from a melting point compilation (Tetko et al.; mined from patent text by program, amines drawn as free bases though some values may be those of a salt).

Bounds are passed on as bounds.

Broadly, the melting point is the temperature of the solid-liquid transition.

Consider `Cc1nc(-c2ccc(C(F)(F)F)cc2)sc1Sc1ccc(Cc2nn[nH]n2)cc1`, for which the melting point is 177 °C.

The compound `CCc1nn2c(-c3cccc(C(F)(F)F)c3)c(C)cnc2c1C#N` came in with a melting point of 163 to 164 °C.

For `O=c1[nH]c2c(n(O)c1=O)C1=C(CCC(n3ccc(CN4CCN(Cc5ccccc5)CC4)c3)=C1)CC2`, the melting point is greater than 200 °C.

`CCOC(=O)NS(=O)(=O)c1cc(C(C)=O)ccc1Cl` registered a melting point of 106 °C.

Turning to `Cc1cccc(C2(C(N)=S)CCCS2)n1` (centres undefined), the melting point was determined as 171 °C.

`CC(=O)OCC(=O)C1(O)C(C)CC2C3CC(C)C4=CC(=O)C=CC4(C)C3=CCC21C` (centres undefined) displayed a melting point of 215 to 216 °C.

The compound `Cn1c(N2CC3CC2CN3C(=O)c2ccccc2)nc(-c2ccncn2)cc1=O` (centres undefined) showed a melting point of 133 to 135 °C.

`CC(C)NS(=O)(=O)c1sccc1-c1cccc2cc(-c3ncc(CCl)s3)[nH]c12`: the melting point fell in the range of 184 to 185 °C.

Take `COC(=O)C(=O)c1ccc(OCCOc2ccc3cccnc3c2)cc1`: the melting point lay in the range of 92 to 94 °C.

`CCOC(=O)c1cc(Cl)nc(SCc2ccc3ccccc3c2)n1` returned a melting point of 95 to 96 °C.

As to `N#Cc1ccc2c(c1)CCCC2(O)c1ccns1` (centres undefined), the melting point fell in the range of 182 to 184 °C.

`O=S1N=C(NCCCN(Cc2ccc(F)cc2)c2ccccn2)C(NCc2ccncc2)=N1` (centres undefined): the melting point lay within 160 to 163 °C.

In turn, `CCOC(=O)c1c(SC2CCCCC2=O)nc2cc(Cl)c(F)cc2c1O` (centres undefined) showed a melting point of 252 to 257 °C.

In turn, `CC(C)(C)c1ccc2sc3cc(C#N)ccc3c(=O)c2c1` came in with a melting point of 181 to 184 °C.

`O=C(C=Cc1cc(OC(=O)c2ccccc2)c(OC(=O)c2ccccc2)c([N+](=O)[O-])c1)c1ccccc1` displayed a melting point of 206 to 210 °C.

In turn, `O=C(c1ccc2nonc2c1)N1CCOCC1` displayed a melting point of 148 to 150 °C.

In turn, `Cc1cc(OCc2nc3ccccc3s2)ccc1[N+](=O)[O-]` returned a melting point of 145 to 147 °C.

On to `CCC1=Nc2ccccc2CC(c2cccnc2)N1C` (centres undefined), for which the melting point lay within 72 to 75 °C.

The compound `Cc1ccc2c(-c3cccc(O)c3)nc(=O)n(C(C)C)c2c1` showed a melting point of 270 to 272 °C.

`O=C(O)c1cnc2ccoc2c1` returned a melting point of 238 to 239 °C.

With `O=CC1C(=O)CCC(c2ccccc2)(c2ccccc2)C1C[N+](=O)[O-]` (centres undefined), the melting point was 188 °C.

As for `CCn1nc(C)c2c(O)c(C(=O)O)cnc21`, the melting point was in the range of 212 to 213 °C.

With `COc1ccc(-c2ccc(Cl)cc2)cc1COCCc1cccc(NS(=O)(=O)C(F)(F)F)c1`, the melting point was in the range of 99 to 101 °C.

The compound `CCOc1ccc(C(=O)NCc2ccc3c(c2)C(=O)N(C2(C)CCC(=O)NC2=O)C3=O)cn1` (centres undefined) returned a melting point of 174 to 176 °C.

In turn, `CNC(=O)c1ccc(OCC(O)CNC(C)COc2ccc(O)c(C(N)=O)c2)cc1` (centres undefined) registered a melting point of 172 to 175 °C.

As for `Cc1cc(C(=O)c2ccc(F)c(C)c2)ccc1F`, the melting point lay in the range of 128 to 130 °C.

With `Cn1cc(C(=O)O)c(=O)c2sc(-c3ccccc3)cc21`, the melting point was in the range of 290 to 292 °C.

`CC(=NNc1ccc(C2=NNC(=O)CC2C)cc1)c1ccncc1` (centres undefined) yielded a melting point of 246 to 248 °C.

`[N-]=[N+]=Nc1cc(Cl)nc(-c2ccco2)n1` yielded a melting point of 117 to 119 °C.

For `CN(CCO)S(=O)(=O)c1cc(NC(=O)c2cnn3c(C(F)(F)F)cc(-c4ccc(C(F)(F)F)cc4)nc23)c(Cl)s1`, the melting point came to 221 °C.

`CNCC1Cc2cc(-c3cccc(F)c3)cc(F)c2O1` (centres undefined) showed a melting point greater than 250 °C.

As for `CCOCc1nc2c(N)nc3cc(-n4ccnc4)ccc3c2n1CCCOC`, the melting point is 168 to 169 °C.

Consider `O=CN1CCC2=C(CCCC2)C1Cc1ccc(O)cc1` (centres undefined), for which the melting point fell in the range of 154 to 156 °C.

`CCCCN(Cc1ccc(-c2ccccc2-c2nnnn2C(c2ccccc2)(c2ccccc2)c2ccccc2)cc1)c1cc(C)nc(C)n1`: the melting point was in the range of 125 to 127 °C.

In turn, `CNC(=S)SCCC(=O)N1CCC[C@H]1C(=O)O` came in with a melting point of 127 to 129 °C.

In turn, `CCOC(=O)C1(NC(=O)c2ccc3c(Cl)cnc(Cl)c3c2)CCCC1` yielded a melting point of 178 to 180 °C.

`CC(C)=Nn1c(C(F)(F)F)cc(=O)n(-c2cc(Oc3ccccc3[N+](=O)[O-])c(Cl)cc2F)c1=O` showed a melting point of 173 to 176 °C.

With `c1ccc(C[C@@H]2CN3C(c4nnn[nH]4)=Nc4nc(C5CCCC5)[nH]c4C3=N2)cc1`, the melting point is 268 to 270 °C.

Take `O=C(Nc1cc2ncc(CN3CCCC3)cc2cc1N1CCCC1)c1ccc(-c2ccc(F)cc2)cc1`: the melting point was in the range of 182 to 184 °C.

The compound `COc1ccc(NC(C)=O)cc1F` returned a melting point of 120 °C.

`Cc1coc(Cc2ccc(N)cc2)n1` displayed a melting point of 84 to 85 °C.

`Oc1ccc(C2=C(c3ccc(OCCCCCSCCCC(F)(F)C(F)(F)F)cc3)c3ccc(O)cc3CCC2)cc1` showed a melting point of 157 to 158 °C.

The compound `CN1CCN(c2ccccc2CC2CCN(c3ccccc3)C2=O)CC1` (centres undefined) yielded a melting point of 104 to 106 °C.

The compound `Cc1cc(NS(=O)(=O)c2ccccc2)cnc1CCCC#N` gave a melting point of 119 to 120 °C.

As to `CCCCCc1c(C(C)C)nc(C(C)C)c(CO)c1-c1ccc(C(C)C)cc1`, the melting point fell in the range of 42 to 44 °C.

On to `CC(n1cncn1)C(O)(Cn1cncn1)c1ccc(F)cc1` (centres undefined), for which the melting point lay in the range of 103 to 106 °C.

`CCCCC[C@@H](CNC(=O)Nc1c(N2CCOCC2)ncnc1N1CCOCC1)c1cccc2c1OCO2` displayed a melting point of 128 to 132 °C.

`O=C1NC(=O)C(Cc2ccc(SCc3ccccc3)cc2)S1` (centres undefined) registered a melting point of 102 to 103 °C.

Take `CN(C)Cc1ccc([C@H]2CC[C@H](O)CC2)cc1`: the melting point lay within 63 to 65 °C.

As for `COc1cc(C(=O)NS(=O)(=O)c2ccccc2Cl)ccc1Cc1c(Cl)n(C)c2ccc(CCNC(=O)N(C)C)cc12`, the melting point lay within 204 to 206 °C.

In turn, `CCN(CC)CCNC(=O)c1cc(Cl)c(N)cc1OCCCCS(C)=O` (centres undefined) displayed a melting point of 80 to 83 °C.

For `CC(=O)Nc1ncc2cc(-c3c(Cl)cccc3Cl)c(NC(C)=O)nc2n1`, the melting point lay within 223 to 225 °C.

The compound `COc1ccc(C2=NN(c3nc(-c4cccs4)ns3)C(=O)[C@H]3CC=CC[C@@H]23)cc1Cl` (relative stereo) displayed a melting point of 254 to 256 °C.

In the case of `Cc1c(SCCSCc2ccncc2)ccnc1CNc1cnc2ccccc2c1`, the melting point was 123 to 126 °C.

`C#CCn1c(C)c(C)c2cnnc(OCc3ccccc3)c21` displayed a melting point of 116 to 117 °C.

`CCCCCCCCCCCCCOc1ccc(CO)cc1` had a melting point of 72 to 75 °C.

With `C=C(Cl)CSC(=S)Nc1ccc(Cl)cc1C`, the melting point was 88 to 90.5 °C.

In turn, `O=C1Oc2ccccc2CN1C1CCN(Cc2ccccc2)CC1` returned a melting point of 106 to 107 °C.

With `CCCCS(=O)(=O)Nc1ccc(Oc2cccc3c(C)ccnc23)cc1`, the melting point lay within 208 to 209 °C.

Compound `COc1ccc(-c2nc(CCl)nc3cc(OC)c(OC)cc23)cc1OC` displayed a melting point of 183 to 184 °C.

`CNC(=O)n1nc(Oc2ccc([N+](=O)[O-])cc2C(F)(F)F)c(C)c1C` displayed a melting point of 113 to 115 °C.

As to `CC(C)CC(N)C(=O)NC(=O)N(CCCl)N=O` (racemic), the melting point is 82 to 84 °C.

Consider `c1ccc2c(=Nc3ccncc3)cc3oc4cc(N5CCOCC5)ccc4nc-3c2c1`, for which the melting point is greater than 300 °C.

`NC(=O)c1cnc2c([N+](=O)[O-])cccc2c1Cl` had a melting point of 277 to 279 °C.

Compound `Cn1c(COc2ccc(CC3SC(=O)NC3=O)cc2)nc2cnccc21` (centres undefined) showed a melting point of 264 to 265 °C.

`CC(C)(C)c1ncc(Br)cn1` came in with a melting point of 50 to 51 °C.

`CCCCCCCCCCCCCCCCCCOc1ccccc1CC(=O)CO` came in with a melting point of 59 to 60 °C.

As for `O=C1CN2CCOC2(c2ccccc2F)c2cc(Cl)ccc2N1CCO` (centres undefined), the melting point lay in the range of 141 to 146 °C.

With `O=C(NCCO)/C(=C/c1ccc(OC(F)F)cc1)NC(=O)c1ccc(OCCc2ccc(Cl)cc2)cc1`, the melting point is 160 to 162 °C.

The compound `Cc1ccc(C(=O)NC#N)cc1` showed a melting point of 140 to 142 °C.

Compound `O=c1c(Cl)c(Cl)cnn1-c1cc(-c2ccnc(Nc3cccc(Cl)c3)n2)ccn1` gave a melting point of 238 to 240 °C.

`CCCCCCCCCCCCCCCCCCC(COC(C)=O)(COC(C)=O)NC(C)=O` had a melting point of 90 to 91 °C.

For `Fc1ccc(-c2ncnc(C(F)(F)F)c2Cl)c(F)c1`, the melting point was in the range of 61 to 63 °C.

As to `COc1ccc2[nH]c3c(C(=O)O)cccc3c2c1`, the melting point was 262 °C.

Regarding `CCOC(=O)c1cnn(-c2ccc(OC)cc2)c1N`, the melting point is 209 to 211 °C.

In the case of `CC(=O)Oc1c(C2CCN(CCCCNC(=O)c3ccc(-c4ccc(C#N)cc4)cc3)CC2)ccc2ccccc12`, the melting point lay within 115 to 120 °C.

`Fc1cccc(F)c1C(C1=NOCCO1)N1CCc2sccc2C1` (centres undefined) returned a melting point of 151 to 153 °C.

`C1=Cc2c(ccc3cccnc23)OC1` came in with a melting point of 207 to 208 °C.

The compound `CCC(O)(c1ccc(F)cc1)c1ccc(OCc2ccccc2)cc1` (centres undefined) gave a melting point of 56 to 57 °C.

Compound `Cc1ccc(O)c2[nH]c(Cc3cccnc3)nc12` yielded a melting point of 264 to 268 °C.

On to `CCOc1ccccc1OCC1(O)CCNC1` (centres undefined), for which the melting point was 108 to 110 °C.

In the case of `O=c1[nH]c2ccc(Cl)cc2n1CCO`, the melting point came to 160 °C.

Regarding `CC(=O)OCC1OC(n2ccnc2[N+](=O)[O-])CC1OC(C)=O` (centres undefined), the melting point was determined as 155 °C.

The compound `Cn1c(=O)c(-c2ccc(Cl)cc2Cl)cc2c3cc(-c4nnc(N)s4)ccc3n(C)c21` gave a melting point of 321 to 323 °C.

With `COc1cccc(OC)c1C(=O)Nc1nc[nH]n1`, the melting point was in the range of 191 to 193 °C.

On to `NS(=O)(=O)c1cccc(-c2cn(-c3nc(-c4ccc(C(F)(F)F)nc4)cc(C(F)F)n3)cn2)c1`, for which the melting point was 220 °C.

`Nc1cccc(-c2ccc(CCN3CCC4(CC3)NC(=O)N(CCc3ccccc3)C4=O)cc2)n1`: the melting point lay in the range of 176 to 180 °C.

For `Cn1c(SC(Cl)=C(Cl)C#N)nnc1C(F)(F)F`, the melting point lay within 90 to 94 °C.

With `Cn1nc2nnsc2c1C(N)=O`, the melting point is 183 to 184 °C.
